Measured values from BigSolDB 2.1.

Clc1cc(Cl)c(OCCBr)c(Cl)c1
solubility (mole fraction)
Conditions	in acetone	in acetonitrile	in ethanol	in isopropanol	in methanol	in n-heptane	in n-propanol
278.1 K	–	–	–	0.00574	0.00356	–	0.0098
278.2 K	0.094	0.0146	0.00698	–	–	0.0388	–
283.1 K	0.105	–	0.00794	–	0.00448	0.047	–
283.2 K	–	0.0176	–	0.00688	–	–	0.0105
288.1 K	0.117	–	–	–	0.00563	0.057	–
288.2 K	–	0.0211	0.0086	0.00825	–	–	0.0113
293.1 K	0.131	0.0253	0.00968	0.0099	–	0.069	–
293.2 K	–	–	–	–	0.0071	–	0.0121
298.1 K	–	–	0.0108	–	–	0.0839	0.013
298.2 K	0.146	0.0304	–	0.0118	0.00892	–	–
303.1 K	–	0.0364	0.012	–	–	–	–
303.2 K	0.163	–	–	0.0142	0.0112	0.102	0.014
308.1 K	–	–	–	–	0.0141	–	0.0151
308.2 K	0.182	0.0437	0.0134	0.017	–	0.123	–
313.1 K	0.203	–	–	0.0204	–	0.15	–
313.2 K	–	0.0525	0.0149	–	0.0177	–	0.0162
318.1 K	–	–	0.0166	0.0245	–	–	0.0174
318.2 K	0.226	0.063	–	–	0.0223	0.182	–
323.1 K	–	–	–	–	0.0281	0.22	–
323.2 K	0.253	0.076	0.0186	0.0294	–	–	0.0187
